ChEMBL document CHEMBL1128686, “Technetium-99m-labeled HOE 140: a potential bradykinin B2 receptor imaging agent” (J Med Chem, 1995)

Molecular target: T1, B2 bradykinin receptor (Cavia porcellus, UniProt O70526)
T1 sequence (O70526 whole entry): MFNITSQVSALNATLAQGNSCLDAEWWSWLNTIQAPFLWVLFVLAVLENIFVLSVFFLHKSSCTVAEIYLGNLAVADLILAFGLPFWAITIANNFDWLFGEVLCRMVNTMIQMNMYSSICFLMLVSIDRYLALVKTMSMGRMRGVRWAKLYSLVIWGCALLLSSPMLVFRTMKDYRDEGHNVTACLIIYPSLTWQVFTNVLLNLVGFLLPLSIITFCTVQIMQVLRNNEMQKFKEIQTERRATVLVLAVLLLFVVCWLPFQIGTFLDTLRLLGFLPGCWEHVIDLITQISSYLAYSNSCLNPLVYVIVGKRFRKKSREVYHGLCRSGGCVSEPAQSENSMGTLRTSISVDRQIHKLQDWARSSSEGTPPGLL
Assay: In vitro antagonistic activity for Bradykinin receptor B2 by guinea pig ileal membrane receptor assay.
Format: functional

IC50: 1.07 nM
Compound: NC(N)=NCCC[C@@H](N)C(=O)N[C@@H](CCCN=C(N)N)C(=O)N1CCC[C@H]1C(=O)N1C[C@H](O)C[C@H]1C(=O)NCC(=O)N[C@@H](Cc1cccs1)C(=O)N[C@@H](CO)C(=O)N1Cc2ccccc2C[C@@H]1C(=O)N1[C@H](C(=O)N[C@@H](CCCN=C(N)N)C(=O)O)C[C@@H]2CCCC[C@@H]21 [ICATIBANT]
